Source: patent US20020187514A1 (priority 1999, published 2002)

Experiments:
[1] = system: Glutamate, MK-801 Site; test: Glutamate, MK-801 Site; [3H]MK-801; assay type: binding; conditions: 10^−5 M
[2] = target: Adrenergic, Alpha 2A (Homo sapiens, UniProt P08913); test: Adrenergic, Alpha 2A (Human); [3H]MK-912; assay type: binding; conditions: read-out: Pass 1 (10^−5 M) % Inhibition
Adrenergic, Alpha 2A, sequence (P08913 whole entry): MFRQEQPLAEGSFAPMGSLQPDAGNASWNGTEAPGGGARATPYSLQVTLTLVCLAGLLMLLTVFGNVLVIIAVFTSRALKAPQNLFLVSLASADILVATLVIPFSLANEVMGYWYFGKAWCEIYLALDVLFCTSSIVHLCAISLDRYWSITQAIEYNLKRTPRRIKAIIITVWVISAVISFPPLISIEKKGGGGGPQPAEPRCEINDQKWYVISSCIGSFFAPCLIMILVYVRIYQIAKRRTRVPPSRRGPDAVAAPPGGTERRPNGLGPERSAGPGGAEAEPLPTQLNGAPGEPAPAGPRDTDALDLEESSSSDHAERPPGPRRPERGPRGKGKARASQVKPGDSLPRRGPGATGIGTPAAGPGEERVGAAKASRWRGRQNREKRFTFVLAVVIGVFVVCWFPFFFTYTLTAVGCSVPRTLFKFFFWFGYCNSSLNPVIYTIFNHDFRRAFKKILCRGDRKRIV

## COC(=O)[C@H]1[C@@H](OC(=O)c2ccccc2)C[C@@H]2CC[C@H]1N2C [cocaine]
[1]
  Pass 1 (10^−5 M) % Inhibition: −2.86%
[2]
  inhibition at 10 µM: 15.3%
